Measurements taken from patent publication US20230233569A1 (Revolution Medicines, Inc., priority 2020, published 2023).
Like-named read-outs stand apart in the source and are kept apart here.

Tests used:
KRAS G13C = KRAS G13C (Homo sapiens, UniProt P01116+P62937, G13C); assay: Disruption of BRAF RBD interaction with Ras (FRET / MOA assay, with Cyclophilin A); type: biochemical
Text: (§1) This protocol may also be executed substituting other Ras proteins or nucleotides.
(§2) The purpose of this biochemical assay was to measure the ability of test compounds to facilitate ternary complex formation between a nucleotide-loaded K-Ras isoform and Cyclophilin A; the resulting ternary complex disrupts binding to a BRAF^RBD construct, inhibiting K-Ras signaling through a RAF effector. Data is reported as IC50 values.
(§3) Compound was present in plate wells as a 10-point 3-fold dilution series starting at a final concentration of 30 μM. After incubation at 25° C. for 3 hours, a mixture of Anti-His Eu-W1024 and anti-GST allophycocyanin was then added to assay sample wells at final concentrations of 10 nM and 50 nM, respectively, and the reaction incubated for an additional 1.5 hours. […] Compounds that facilitate disruption of a K-Ras:RAF complex were identified as those eliciting a decrease in the TR-FRET ratio relative to DMSO control wells.
as §2, with “BRAF^RBDD” for “BRAF^RBD”

KRAS G12V = KRAS G12V (Homo sapiens, UniProt P01116+P62937, G12V); assay: as above; type: biochemical
Text: as §1, §2, §3
as §2, with “BRAF^RBDD” for “BRAF^RBD”

KRAS WT = KRAS WT (Homo sapiens, UniProt P01116+P62937); assay: as above; type: biochemical
Text: as §1, §2, §3
as §2, with “BRAF^RBDD” for “BRAF^RBD”

KRAS G12C = KRAS G12C (Homo sapiens, UniProt P01116+P62937, G12C); assay: as above; type: biochemical
Text: as §1, §2, §3
as §2, with “BRAF^RBDD” for “BRAF^RBD”

KRAS G12S = KRAS G12S (Homo sapiens, UniProt P01116+P62937, G12S); assay: as above; type: biochemical
Text: as §1, §2, §3
as §2, with “BRAF^RBDD” for “BRAF^RBD”

KRAS G12D = KRAS G12D (Homo sapiens, UniProt P01116+P62937, G12D); assay: as above; type: biochemical
Text: as §1, §2, §3
as §2, with “BRAF^RBDD” for “BRAF^RBD”

NCI-H358 (K-Ras G12C) = assay: CellTiter-Glo cell viability assay, 5-day treatment; type: cell-based; conditions: Homo sapiens
Method: Protocol: CellTiter-Glo® Cell Viability Assay
Note—The following protocol describes a procedure for monitoring cell viability of K-Ras mutant cancer cell lines in response to a compound of the invention. Other RAS isoforms may be employed, though the number of cells to be seeded will vary based on cell line used.
(§4) Test compounds (132.5 nL) were directly dispensed into the assay plates containing cells. […] On day 5, assay plates and their contents were equilibrated to room temperature for approximately 30 minutes. […] Luminescence was measured using the PerkinElmer Enspire. Data were normalized by the following: (Sample signal/Avg. DMSO)*100. The data were fit using a four-parameter logistic fit.
as §4, with “nl)” for “nL)”

KRAS G13D = KRAS G13D (Homo sapiens, UniProt P01116+P62937, G13D); assay: Disruption of BRAF RBD interaction with Ras (FRET / MOA assay, with Cyclophilin A); type: biochemical
Text: as §1, §2, §3
as §2, with “BRAF^RBDD” for “BRAF^RBD”

NRAS G12C = NRAS G12C (Homo sapiens, UniProt P01111+P62937, G12C); assay: as above; type: biochemical; conditions: NRAS G12C; read-out: NRAS G12C FRET data IC50
Text: as §1, §2, §3
as §2, with “BRAF^RBDD” for “BRAF^RBD”

[1] = read-out: KRAS G13C FRET data, IC50
[2] = KRAS G12V, read-out: KRAS G12V FRET data IC50
[3] = KRAS WT, read-out: KRAS WT FRET data IC50
[4] = read-out: KRAS G12C FRET data, IC50
[5] = read-out: KRAS G12S FRET data, IC50
[6] = read-out: KRAS G12D FRET data, IC50
[7] = NCI-H358, 120 h, 5-day treatment, read-out: H358 Cell Viability assay data (K-Ras G12C, IC50)
[8] = NCI-H358, H358, K-Ras G12C, read-out: Additional H358 Cell Viability assay data (K-Ras G12C, IC50)
[9] = KRAS G13D, read-out: KRAS G13D FRET data IC50

Chain of KRAS WT (P01116 1-169 isoform P01116-2 limits assumed): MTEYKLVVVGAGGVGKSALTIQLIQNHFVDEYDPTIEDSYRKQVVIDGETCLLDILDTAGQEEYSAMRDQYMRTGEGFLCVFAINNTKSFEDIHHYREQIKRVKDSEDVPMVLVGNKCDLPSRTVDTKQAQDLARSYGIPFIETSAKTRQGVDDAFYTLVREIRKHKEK
Chain of KRAS WT (P62937 whole entry): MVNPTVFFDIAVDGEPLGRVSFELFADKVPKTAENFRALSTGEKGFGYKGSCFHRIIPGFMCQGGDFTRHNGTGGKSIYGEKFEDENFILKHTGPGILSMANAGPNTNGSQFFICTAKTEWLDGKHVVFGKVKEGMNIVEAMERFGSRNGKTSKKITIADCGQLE
Chain of KRAS G12S (P01116 1-169 isoform P01116-2 G12S limits assumed): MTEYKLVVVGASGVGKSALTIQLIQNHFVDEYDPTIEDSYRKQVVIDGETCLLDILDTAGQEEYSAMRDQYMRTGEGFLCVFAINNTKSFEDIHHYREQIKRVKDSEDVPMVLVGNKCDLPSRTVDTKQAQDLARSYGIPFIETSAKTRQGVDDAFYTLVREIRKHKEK
Chain of KRAS G12S (P62937 whole entry): as the sequence (P62937 whole entry) above
Chain of KRAS G12C (P01116 1-169 isoform P01116-2 G12C): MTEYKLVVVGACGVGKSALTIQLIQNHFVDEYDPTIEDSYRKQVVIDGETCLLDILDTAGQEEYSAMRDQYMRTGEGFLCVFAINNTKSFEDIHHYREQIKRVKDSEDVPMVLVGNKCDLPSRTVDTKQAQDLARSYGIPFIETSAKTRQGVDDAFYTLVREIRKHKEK
Chain of KRAS G12C (P62937 whole entry): as the sequence (P62937 whole entry) above
Chain of KRAS G13D (P01116 1-169 isoform P01116-2 G13D limits assumed): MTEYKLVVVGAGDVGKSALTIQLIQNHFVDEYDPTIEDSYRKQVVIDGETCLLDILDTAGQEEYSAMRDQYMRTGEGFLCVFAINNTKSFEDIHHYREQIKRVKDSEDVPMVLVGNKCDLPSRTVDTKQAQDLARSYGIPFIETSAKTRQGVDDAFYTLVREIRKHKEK
Chain of KRAS G13D (P62937 whole entry): as the sequence (P62937 whole entry) above
Chain of KRAS G12V (P01116 1-169 isoform P01116-2 G12V limits assumed): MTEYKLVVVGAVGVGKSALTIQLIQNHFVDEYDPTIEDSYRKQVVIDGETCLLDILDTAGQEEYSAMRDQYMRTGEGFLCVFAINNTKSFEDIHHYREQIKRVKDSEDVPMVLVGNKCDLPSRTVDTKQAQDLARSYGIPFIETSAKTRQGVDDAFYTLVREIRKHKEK
Chain of KRAS G12V (P62937 whole entry): as the sequence (P62937 whole entry) above
Chain of KRAS G12D (P01116 1-169 isoform P01116-2 G12D limits assumed): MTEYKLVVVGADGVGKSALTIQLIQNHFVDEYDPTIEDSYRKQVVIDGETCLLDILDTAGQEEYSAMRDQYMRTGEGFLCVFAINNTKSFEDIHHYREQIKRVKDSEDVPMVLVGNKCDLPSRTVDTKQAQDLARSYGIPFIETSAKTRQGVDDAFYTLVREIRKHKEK
Chain of KRAS G12D (P62937 whole entry): as the sequence (P62937 whole entry) above
Chain of KRAS G13C (P01116 1-169 isoform P01116-2 G13C): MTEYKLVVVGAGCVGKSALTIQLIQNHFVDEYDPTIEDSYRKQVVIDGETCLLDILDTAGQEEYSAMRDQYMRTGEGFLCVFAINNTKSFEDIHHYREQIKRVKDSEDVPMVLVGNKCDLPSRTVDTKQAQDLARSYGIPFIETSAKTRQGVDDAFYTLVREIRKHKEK
Chain of KRAS G13C (P62937 whole entry): as the sequence (P62937 whole entry) above
Chain of NRAS G12C (P01111 whole entry G12C): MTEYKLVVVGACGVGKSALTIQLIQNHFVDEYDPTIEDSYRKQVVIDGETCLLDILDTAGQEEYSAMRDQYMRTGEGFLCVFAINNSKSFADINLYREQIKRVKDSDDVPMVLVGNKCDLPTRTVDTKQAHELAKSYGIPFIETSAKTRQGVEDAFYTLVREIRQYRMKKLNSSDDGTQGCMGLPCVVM
Chain of NRAS G12C (P62937 whole entry): as the sequence (P62937 whole entry) above

Compound | IC50 (KRAS G13C; [1]) | IC50 (KRAS G12V; [2]) | IC50 (KRAS WT; [3]) | IC50 (KRAS G12S; [5]) | IC50 (KRAS G12D; [6]) | IC50 (NCI-H358 (K-Ras G12C); [7]) | IC50 (NCI-H358 (K-Ras G12C); [8]) | further results
CCn1c(-c2cccnc2COC)c2c3cc(ccc31)-c1cc(O)cc(c1)C[C@H](NC(=O)[C@H](C(C)C)N(C)C(=O)[C@H](N)CCCNC(=N)N)C(=O)N1CCC[C@H](N1)C(=O)OCC(C)(C)C2 [Example A48] | 100 to 1000 nM | 1000 to 10000 nM | 100 to 1000 nM | 100 to 1000 nM | 100 to 1000 nM | > 10000 nM |  | IC50 (KRAS G12C; [4]): 100 to 1000 nM
CCn1c(-c2cnccc2COC)c2c3cc(ccc31)-c1cc(O)cc(c1)C[C@H](NC(=O)[C@H](C(C)C)N(C)C(=O)[C@H]1CCN(C(C)C)C1)C(=O)N1CCC[C@H](N1)C(=O)OCC(C)(C)C2 [Example A41] | 10 to 100 nM | 1000 to 10000 nM | 100 to 1000 nM | 100 to 1000 nM | 100 to 1000 nM | 1000 to 10000 nM |  | IC50 (KRAS G12C; [4]): 100 to 1000 nM
C=CC(=O)N1CC[C@H](C(=O)N(C)[C@H](C(=O)N[C@H]2Cc3cc(O)cc(c3)-c3ccc4c(c3)c(c(-c3ccccc3CCOC)n4C(C)(C)C#N)CC(C)(C)COC(=O)[C@@H]3CCCN(N3)C2=O)C(C)C)C1 [Example A34] |  |  |  |  |  |  | 10 to 100 nM | 
CCn1c(-c2cccnc2COC)c2c3cc(ccc31)-c1cc(C)cc(c1)C[C@H](NC(=O)[C@H](C(C)C)N(C)C(=O)[C@H]1CCN(C(=O)C#CCN(C)C)C1)C(=O)N1CCC[C@H](N1)C(=O)OCC(C)(C)C2 [Example A157] |  |  |  |  |  |  | < 10 nM | 
CCn1c(-c2cccnc2[C@H](C)OC)c2c3cc(ccc31)-c1cc(O)cc(c1)C[C@H](NC(=O)[C@H](C(C)C)N(C)C(=O)[C@@H]1C[C@@H]1F)C(=O)N1CCC[C@H](N1)C(=O)OCC(C)(C)C2 [Example A160] |  | 10 to 100 nM |  |  |  | 10 to 100 nM |  | 
CCn1c(-c2ccccc2CCOC)c2c3cc(ccc31)-c1cc(O)cc(c1)C[C@H](NC(=O)[C@H](C(C)C)N(C)C(=O)CCN)C(=O)N1CCC[C@H](N1)C(=O)OCC(C)(C)C2 [Example A70] |  |  |  |  |  | 1000 to 10000 nM |  | IC50 (KRAS G13C; KRAS G13C FRET data, IC50): 1000 to 10000 nM; IC50 (KRAS G12V; KRAS G12V FRET data IC50, KRAS G12V): > 10000 nM; IC50 (KRAS WT; KRAS WT FRET data IC50, KRAS WT): 1000 to 10000 nM; IC50 (KRAS G13D; KRAS G13D FRET data IC50, KRAS G13D): 1000 to 10000 nM; IC50 (KRAS G12C; KRAS G12C FRET data, IC50): 1000 to 10000 nM; IC50 (KRAS G12S; KRAS G12S FRET data, IC50): 1000 to 10000 nM; IC50 (KRAS G12D; KRAS G12D FRET data, IC50): 1000 to 10000 nM
CCn1c(-c2cccnc2[C@H](C)OC)c2c3cc(ccc31)-c1cc(O)cc(c1)C[C@H](NC(=O)[C@H](C(C)C)N(C)C(=O)[C@@H]1NC[C@@H]3C[C@@H]31)C(=O)N1CCC[C@H](N1)C(=O)OCC(C)(C)C2 [Example A217] |  |  |  |  |  | 10 to 100 nM |  | 
C=CC(=O)N1CC[C@H](C(=O)N(C)[C@H](C(=O)N[C@H]2Cc3cc(O)cc(c3)-c3ccc4c(c3)c(c(-c3cccnc3[C@@H](OC)C3CC3)n4CC)CC(C)(C)COC(=O)[C@@H]3CCCN(N3)C2=O)C(C)C)C1 (atropisomer, axis not shown) [Example A206] |  |  |  |  |  |  | 100 to 1000 nM | 
CCn1c(-c2cccnc2[C@H](C)OC)c2c3cc(ccc31)-c1cc(O)cc(c1)C[C@H](NC(=O)[C@H](C(C)C)N(C)C(=O)[C@@H]1CNC[C@@H]1C)C(=O)N1CCC[C@H](N1)C(=O)OCC(C)(C)C2 [Example A128] | 10 to 100 nM | 100 to 1000 nM | 10 to 100 nM | 10 to 100 nM | 10 to 100 nM | 1000 to 10000 nM |  | IC50 (KRAS G13D; [9]): 10 to 100 nM; IC50 (NRAS G12C): 10 to 100 nM
C=CC(=O)N1CC[C@H](C(=O)N(C)[C@H](C(=O)N[C@H]2CCC(=O)N(C)Cc3ccc4c(c3)c(c(-c3cccnc3[C@H](C)OC)n4CC)CC(C)(C)COC(=O)[C@@H]3CCCN(N3)C2=O)C(C)C)C1 [Example A500] |  |  |  |  |  |  | > 1000 nM | IC50 (KRAS G13D; [9]): > 10000 nM; IC50 (NRAS G12C): > 10000 nM; IC50 (KRAS G12C; KRAS G12C, read-out: KRAS G12C FRET data IC50): > 10000 nM
